# How the values were obtained:
# Per1 gene = experiment: expression of clock genes in liver of mouse given corticosterone (quantitative real time RT-PCR); format: in vivo
# Method: This example is intended to investigate the amount of expression of Per1 in a mouse which was given corticosterone.
# A mouse was given a prescribed amount of corticosterone, and one hour later, it had its liver extracted. The collected liver was homogenized for quantitative real time RT-PCR in the same way as in Example 2, and the amount of expression of clock genes was determined.
# The abscissa represents the dosage (mg/kg) of corticosterone per 1 kg of the mouse's weight. “PBS” denotes the control which was given a phosphate buffer solution in place of corticosterone. “fold induction” on the ordinate represents the amount of expression of Per1 gene (in terms of a relative value, with the value for PBS being 1).
# The abscissa represents each clock gene. “fold induction” on the ordinate represents the amount of expression of each clock gene in terms of a relative value, with the value for PBS being 1.
# [1] = test system: promoter region of Per1 gene; experiment: luciferase assay of Per1 promoter constructs in NIH3T3 cells with dexamethazone; format: cell-based; details: dexamethazone 0.1 μM, 36 hours after transfection
# Method: The second step was luciferase assay to investigate what part of the promoter region of Per1 is associated with stress response.
# Luciferase is an enzyme protein that catalyzes bioluminescence. It can be used to estimate the level at which the expression of a specific gene is induced in the following manner. First, a recombinant gene is prepared in which the promoter region of a specific gene is joined to a gene that codes luciferase. Second, the recombinant gene is incorporated into cultured cells. Third, the gene is allowed to express so that the luciferase is allowed to express. Fourth, the intensity of bioluminescence due to luciferase is determined to obtain the level at which luciferase expresses.
# An experiment was carried out based on the foregoing principle. It involves preparation of several kinds of DNA differing in the length of the promoter region of Per1 and determination of the expression level of Per1 in the presence of dexamethazone. […] Incidentally, dexamethazone is synthetic glucocorticoid. It is known that the amount of glucocorticoid in blood increases when a living organism experiences stress.
# The procedure of the experiment is outlined below. • (1) The first step is to prepare DNAs (P1F, P1K, and P1S), the first one having the entire length of the promoter region of Per1 gene and the second and third ones having the partial length of the promoter region of Per1 gene, with the upstream side cut off. […] The subcultured cells are collected and dissolved 36 hours after transfection. • (4) The fourth step is to prepare a solution from the dissolved cells and measurement of the luminescence intensity by means of Dual Luciferase Assay System (from Promega). […]
# FIG. 4C is a graph showing the results of luciferase assay. The abscissa (Relative Luciferase Activity) represents the intensity of luminescence in terms of relative value (%) compared with the intensity of luminescence assigned as 100 of the cultured cells incorporated with the entire length of the promoter region of Per1 gene.
# “P1F” denotes the intensity of luminescence from cultured cells incorporated with the entire length of the promoter region of Per1 gene. “P1K” denotes the intensity of luminescence from cultured cells incorporated with the partial length of 3806 bases upstream from the transcription starting region of Per1 gene. “P1S” denotes the intensity of luminescence from cultured cells incorporated with the partial length of 2369 bases upstream from the transcription starting region of Per1 gene. “Vector” denotes the intensity of luminescence from cultured cells (control) incorporated with a blank vector. […] “Dex” and “EtOH” respectively denote the intensity of luminescence from a sample containing dexamethazone and a sample (control) containing ethanol. […]
# [2] = target: glucocorticoid receptor (GR) joining to GRE resembling sequence of Per1 gene (Mus musculus, UniProt P06537); details: NIH3T3 cells, 1 hr after treatment with dexamethazone, anti-GR antibody
# glucocorticoid receptor (GR) joining to GRE resembling sequence of Per1 gene, sequence (P06537 whole entry): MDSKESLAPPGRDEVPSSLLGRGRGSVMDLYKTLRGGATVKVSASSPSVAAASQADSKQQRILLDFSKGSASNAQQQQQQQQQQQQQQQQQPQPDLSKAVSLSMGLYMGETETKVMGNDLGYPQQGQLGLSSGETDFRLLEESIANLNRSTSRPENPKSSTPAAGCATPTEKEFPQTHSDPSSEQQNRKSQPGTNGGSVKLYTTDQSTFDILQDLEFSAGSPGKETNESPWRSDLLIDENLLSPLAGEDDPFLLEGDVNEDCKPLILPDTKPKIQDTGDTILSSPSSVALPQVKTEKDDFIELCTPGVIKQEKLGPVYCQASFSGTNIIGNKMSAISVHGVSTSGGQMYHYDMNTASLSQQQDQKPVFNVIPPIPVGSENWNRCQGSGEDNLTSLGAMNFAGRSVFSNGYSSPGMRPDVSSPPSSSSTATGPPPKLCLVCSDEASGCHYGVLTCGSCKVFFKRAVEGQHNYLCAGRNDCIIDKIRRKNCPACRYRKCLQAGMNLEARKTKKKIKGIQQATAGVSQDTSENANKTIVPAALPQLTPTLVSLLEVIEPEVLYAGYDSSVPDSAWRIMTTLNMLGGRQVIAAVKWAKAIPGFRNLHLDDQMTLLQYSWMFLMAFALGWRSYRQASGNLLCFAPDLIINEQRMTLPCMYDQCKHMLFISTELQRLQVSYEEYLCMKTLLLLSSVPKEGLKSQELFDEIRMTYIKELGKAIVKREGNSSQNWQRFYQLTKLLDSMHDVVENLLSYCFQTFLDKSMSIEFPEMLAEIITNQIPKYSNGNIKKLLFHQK
# Method: First, NIH3T3 cells were treated with dexamethazone to induce the expression of mPer1 gene. The cells were given formaldehyde to fix the binding of protein and chromatin DNA. The chromatin DNA was fragmented by sonication and the resulting fragments underwent immunoprecipitation with anti-GR antibody. The resulting precipitates (as a composite of anti-GR antibody, GR, and chromatin DNA joining to GR) were recovered. The recovered precipitates were heated to remove the DNA-protein crosslinking. The desired sequence was amplified by PCR and the PCR product was identified by electrophoresis.
# In other words, the primer was so designed as to specifically amplify the region near the two GRE resembling sequences.
# In FIG. 5B, “IP: α-GR” indicates the desired sequence detected by semi-quantitative RT-PCR after immunoprecipitation by means of anti-GR antibody. “IP: αa-normal rabbit IgG” indicates the sequence (control) detected from immunoprecipitation by means of rabbit IgG. In addition, “input” indicates the desired sequence (control) detected by semi-quantitative RT-PCR without immunoprecipitation. “ChIP primer” in the lowermost row indicates the sequence of the primer used for semi-quantitative RT-PCR or the desired sequence which has been amplified. […]
smiles,measurement,setting,value
C[C@]12C[C@H](O)[C@H]3[C@@H](CCC4=CC(=O)CC[C@@]43C)[C@@H]1CC[C@@H]2C(=O)CO [corticosterone],"amount of expression of each clock gene (fold induction, PBS being 1)","Per1 gene; one hour after corticosterone 10 mg/kg, FIG. 7B",increases the amount of expression of only Per1 gene among clock genes
same,"amount of expression of Per1 gene (fold induction, PBS being 1) versus dosage","Per1 gene; one hour after corticosterone, dosage in mg/kg, FIG. 7A",increases as the dosage of corticosterone increases
C[C@@H]1C[C@H]2[C@@H]3CCC4=CC(=O)C=C[C@]4(C)[C@@]3(F)[C@@H](O)C[C@]2(C)[C@@]1(O)C(=O)CO [dexamethazone],"intensity of luminescence, P1FpM","[1]; P1F with GRE resembling sequence mutated in its downstream, FIG. 4D",high intensity of luminescence
same,"intensity of luminescence, P1FdM","[1]; P1F with GRE resembling sequence mutated in its upstream, FIG. 4D",a little lower intensity of luminescence
same,"Relative Luciferase Activity (intensity of luminescence), P1K","[1]; P1K promoter (3806 bases upstream, two GRE resembling sequences), vs EtOH, FIG. 4C",high intensity of luminance
same,"Relative Luciferase Activity (intensity of luminescence), P1S","[1]; P1S promoter (2369 bases upstream, one GRE resembling sequence), vs EtOH, FIG. 4C",certain intensity of luminance
same,detection of dGRE and pGRE sequences by semi-quantitative RT-PCR after immunoprecipitation,[2]; FIG. 5B,the desired band was detected
same,amount of dGRE and pGRE DNA amplified (%input) by quantitative real time RT-PCR after immunoprecipitation,[2]; FIG. 5C,greatly amplifies
